Laboratory results taken from US20240343704A1, “HALO-SUBSTITUTED AMINO PYRIDINE COMPOUNDS AS INHIBITORS OF THE HAEMATOPOIETIC PROGENITOR KINASE 1 (HPK1)” (priority 2021, published 2024).

target: T1, Recombinant (1-346) HPK1 (h) (Homo sapiens, UniProt Q92918); assay: HPK1 Human STE Kinase Enzymatic Radiometric Assay; assay type: biochemical; details: read-out: HPK1 IC50 nM Range*
T1 construct: Recombinant (1-346) HPK1 (h) is incubated with 8 mM MOPS pH 7.0
T1 sequence (Q92918 1-346): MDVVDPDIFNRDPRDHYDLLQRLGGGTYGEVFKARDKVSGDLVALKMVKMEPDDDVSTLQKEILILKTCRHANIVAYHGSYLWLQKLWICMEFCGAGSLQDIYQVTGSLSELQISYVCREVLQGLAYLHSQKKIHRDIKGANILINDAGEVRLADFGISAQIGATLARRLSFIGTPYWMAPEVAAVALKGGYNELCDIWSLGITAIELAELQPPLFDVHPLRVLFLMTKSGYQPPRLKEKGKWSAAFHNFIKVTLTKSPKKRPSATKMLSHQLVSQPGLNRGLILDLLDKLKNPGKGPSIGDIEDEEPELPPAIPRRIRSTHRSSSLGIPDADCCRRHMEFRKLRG
Procedure: A stock solution of 10 mM of test compound is prepared in DMSO. The compound plate was prepared by 3-fold and 9-point serial dilutions. […] The reaction is initiated by The addition of the Mg/ATP mix. After incubation for 40 minutes at RT, the reaction is stopped by the addition of phosphoric acid to a concentration of 0.5%.

| Compound | IC50 [nM] |
| --- | --- |
| C[C@@H]1CN(c2ccc(-c3cc(-c4ccc5c(c4)CCNC5=O)c(N)nc3F)cc2CN(C)C)CCO1 [I-575, (R)-6-(2-amino-5-(3-((dimethylamino)methyl)-4-(2-methylmorpholino)phenyl)-6-fluoropyridin-3-yl)-3,4-dihydroisoquinolin-1(2H)-one] | 11 to 100 |
| CO[C@H]1CCN(Cc2nc(-c3cc(-c4cc5c(cc4F)C(=O)NCC5)c(N)nc3F)ccc2N2CCOCC2)C1 [I-585, (S)-6-(6′-amino-2-fluoro-6-((3-methoxypyrrolidin-1-yl)methyl)-5-morpholino-[2,3′-bipyridin]-5′-yl)-7-fluoro-3,4-dihydroisoquinolin-1(2H)-one] | 0.1 to 10 |
| Cc1c[nH]c(=O)c2ccc(-c3cc(-c4ccc(C5CCOCC5)cc4)c(F)nc3N)cc12 [I-586, 6-(2-amino-6-fluoro-5-(4-(tetrahydro-2H-pyran-4-yl)phenyl)pyridin-3-yl)-4-methylisoquinolin-1(2H)-one] | 11 to 100 |
| Cc1cc2cc(-c3cc(-c4ccc(N5CCN(C(C)C)CC5)cc4)c(F)nc3N)c(F)cc2c(=O)[nH]1 [I-587, 6-(2-amino-6-fluoro-5-(4-(4-isopropylpiperazin-1-yl)phenyl)pyridin-3-yl)-7-fluoro-3-methylisoquinolin-1(2H)-one] | 11 to 100 |
| Cc1c[nH]c(=O)c2ccc(-c3cc(-c4ccc(N5CCOCC5)c(CN(C)C)n4)c(F)nc3N)cc12 [I-588, 6-(6′-amino-6-((dimethylamino)methyl)-2′-fluoro-5-morpholino-[2,3′-bipyridin]-5′-yl)-4-methylisoquinolin-1(2H)-one] | 0.1 to 10 |

Other lines, results leading:

| IC50 [nM] | Compound |
| --- | --- |
| 0.1 to 10 | C[C@@H]1CN(c2ccc(-c3cc(-c4cc5c(cc4F)C(=O)NCC5)c(N)nc3F)cc2CN(C)C)CCO1 [I-576, (R)-6-(2-amino-5-(3-((dimethylamino)methyl)-4-(2-methylmorpholino)phenyl)-6-fluoropyridin-3-yl)-7-fluoro-3,4-dihydroisoquinolin-1(2H)-one] |
| 0.1 to 10 | Cc1c[nH]c(=O)c2cc(F)c(-c3cc(-c4ccc(N5CCN(C(C)C)CC5)cc4)c(F)nc3N)cc12 [I-577, 6-(2-amino-6-fluoro-5-(4-(4-isopropylpiperazin-1-yl)phenyl)pyridin-3-yl)-7-fluoro-4-methylisoquinolin-1(2H)-one] |
| 0.1 to 10 | Nc1nc(F)c(-c2ccc(N3CCOCC3)c(CN3CCC3)n2)cc1-c1ccc2c(c1)CCNC2=O [I-578, 6-(6′-amino-6-(azetidin-1-ylmethyl)-2-fluoro-5-morpholino-[2,3′-bipyridin]-5′-yl)-3,4-dihydroisoquinolin-1(2H)-one] |
| 0.1 to 10 | Nc1nc(F)c(-c2ccc(N3CCOCC3)c(CN3CCC3)n2)cc1-c1cc2c(cc1F)C(=O)NCC2 [I-579] |
| 0.1 to 10 | CCN(C)Cc1nc(-c2cc(-c3cc4c(cc3F)C(=O)NCC4)c(N)nc2F)ccc1N1CCOCC1 [I-581, 6-(6′-amino-6-((ethyl(methyl)amino)methyl)-2′-fluoro-5-morpholino-[2,3′-bipyridin]-5′-yl)-7-fluoro-3,4-dihydroisoquinolin-1(2H)-one] |
| 0.1 to 10 | COCCN(C)Cc1nc(-c2cc(-c3ccc4c(c3)CCNC4=O)c(N)nc2F)ccc1N1CCOCC1 [I-582, 6-(6′-amino-2′-fluoro-6-(((2-methoxyethyl)(methyl)amino)methyl)-5-morpholino-[2,3′-bipyridin]-5′-yl)-3,4-dihydroisoquinolin-1(2H)-one] |
| 0.1 to 10 | COCCN(C)Cc1nc(-c2cc(-c3cc4c(cc3F)C(=O)NCC4)c(N)nc2F)ccc1N1CCOCC1 [I-583, 6-(6′-amino-2′-fluoro-6-(((2-methoxyethyl)(methyl)amino)methyl)-5-morpholino-[2,3′-bipyridin]-5′-yl)-7-fluoro-3,4-dihydroisoquinolin-1(2H)-one] |
| 0.1 to 10 | CO[C@H]1CCN(Cc2nc(-c3cc(-c4ccc5c(c4)CCNC5=O)c(N)nc3F)ccc2N2CCOCC2)C1 [I-584, (S)-6-(6′-amino-2-fluoro-6-((3-methoxypyrrolidin-1-yl)methyl)-5-morpholino-[2,3′-bipyridin]-5′-yl)-3,4-dihydroisoquinolin-1(2H)-one] |
